What all share (assay): NCI tumour cell line growth inhibition, 48 h
In experiment [1] the test system is ACHN renal.
The test system of experiment [2] is CAKI-1 renal.
The test system of experiment [3] is HS 578T breast.
Experiment [4] has as its system IGROV1 ovarian.
Experiment [5] has as its system KM12 colon.
Experiment [6] has as its system NCI-H226 lung.
In experiment [7] the test system is SK-MEL-5 melanoma.
For experiment [8], the system named is TK-10 renal.
Experiment [9] deals with U251 CNS.
The test system of experiment [10] is SR leukemia.

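A five-concentration, 48-hour dose response in 96-well plates underlies each endpoint, interpolated linearly between surrounding concentrations. The concentration for 50% growth inhibition is given as GI50. TGI is the concentration that stops growth completely.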

Regarding `CC(C)(O)C1OCC(C2CCC3(C)C4=CCC5C(C)(C)C(O)CCC5(C)C4CCC23C)CC1O` (centres undefined), the TGI in [1] came to 28.6 µM; in experiment [2] it was 29.4 µM; in experiment [3], 29.3 µM; in experiment [4], 31 µM; in experiment [5], 27 µM; in experiment [6] it was 27.9 µM. Besides, the TGI is 27.8 µM in [7], 25.9 µM in experiment [8] and 27.5 µM in experiment [9].
As to `O=c1cc(-c2ccccc2)nc2n1CCN2Cc1ccccc1`, the GI50 is 25 µM in [1]; 29.7 µM in experiment [2]; 26.9 µM in experiment [3]; 21.2 µM in experiment [4]; 35.7 µM in experiment [5]; 54.7 µM in [6]. Further, the GI50 was 19.9 µM in experiment [7], 26.5 µM in experiment [8] and 30.5 µM in experiment [9]. Besides, the TGI in experiment [1] was 76.7 µM; in experiment [2], greater than 100 µM; in experiment [3], 81.7 µM; in experiment [4], 53.2 µM; in experiment [5], greater than 100 µM; in experiment [6] it was greater than 100 µM. The TGI in experiment [7] is 37.4 µM; in experiment [8], 95.7 µM; in experiment [9] it was greater than 100 µM.
Take `C/C=C(\C)C(=O)O[C@H]1C=CC(=O)O[C@H]1CNC(=O)[C@H](C)O`: the GI50 is 15.7 µM in experiment [1]; 26.8 µM in [2]; 18.6 µM in experiment [3]; 22.6 µM in experiment [4]; 17 µM in [5]; 17.9 µM in [6]. Also, the GI50 in experiment [7] was 17 µM; in [8] it was 17.2 µM; in experiment [9], 15.7 µM. The TGI was 29.9 µM in experiment [1]; 44.4 µM in [2]; 47.2 µM in experiment [3]; 53.3 µM in experiment [4]; 32 µM in experiment [5]; 46.7 µM in [6]. The TGI in experiment [7] turned out to be 31.3 µM; in experiment [8] it was 31.8 µM; in experiment [9], 29.9 µM.
In the case of `COC(=O)C(Nc1ccc(OC)cc1)c1ccccc1` (centres undefined), the TGI in [1], in experiment [2], in experiment [3], in experiment [4], in [5] and in [7] was greater than 100 µM in each case. The TGI in [10] and in experiment [8] was greater than 100 µM in each case.
As for `Cc1cc(S(=O)(=O)Nc2nnc(-c3ccccc3)c(-c3ccccc3)n2)c(SCc2ccccc2)cc1Cl`, the GI50 is 17.6 µM in experiment [1]; 25.5 µM in experiment [2]; 19.1 µM in [3]; 37.3 µM in experiment [4]; 18.5 µM in experiment [5]; 27.7 µM in experiment [6]. In addition, the values for the GI50 in [7], in [8] and in experiment [9] were 17 µM, 17.6 µM and 21.7 µM, respectively. The TGI in experiment [1] is 32.6 µM; in [2], 42.5 µM; in [3], 52.8 µM; in [4], greater than 100 µM; in [5], 43.1 µM; in [6] it was 79.8 µM. Also, the TGI was 33.5 µM in [7], 36.1 µM in experiment [8] and 50.1 µM in experiment [9].
In the case of `CC(=O)N1c2ccccc2Sc2cc(C(O)(C(F)(F)F)C(F)(F)F)ccc21`, the TGI in experiment [1], in experiment [2], in experiment [3], in experiment [4], in [5] and in experiment [6] was greater than 10 µM throughout. Besides, the TGI in experiment [7], in [8] and in [9] was greater than 10 µM each time.
For `C[C@H]1CCC/C=C/[C@@H]2C[C@H](O)C[C@H]2[C@H](O)[C@@H](S(=O)CCN(C)C)CC(=O)O1` (some centres undefined), the GI50 is 0.428 µM in [1]; 0.389 µM in experiment [2]; 0.0646 µM in experiment [3]; 0.337 µM in [4]; 0.0351 µM in experiment [5]; 0.0562 µM in experiment [6]. The GI50 in experiment [7] was 0.0374 µM; in experiment [8], 0.468 µM; in experiment [9] it was 0.498 µM. The TGI in experiment [3] was greater than 40.8 µM; in [5] it was 0.154 µM; in experiment [6], greater than 100 µM; in experiment [7], 0.131 µM; in experiment [8] it was greater than 100 µM; in [9], greater than 100 µM.
With `O=C1OC2(c3ccccc3Oc3ccccc32)c2ccccc21`, the TGI in experiment [1], in experiment [2], in experiment [4], in experiment [5], in [6] and in experiment [7] was greater than 100 µM each time. For the same compound, the TGI in experiment [10], in experiment [8] and in [9] was greater than 100 µM each time.
`C=C1CC[C@@H]2C(C)(C)CCC[C@@]2(C)[C@@H]1Cc1cc(O)ccc1O`: the TGI in [1] was determined as 11.8 µM; in experiment [2], 22.2 µM; in [4] it was 5.65 µM; in experiment [5] it was 19.2 µM; in experiment [6], 7.09 µM; in [7] it was 19.7 µM. Besides, the results for the TGI in experiment [10], in experiment [8] and in [9] were 12.1 µM, 8.77 µM and 14.5 µM, respectively.
Regarding `O=[N+]([O-])C1C2C=CC(C2)[C@H]1c1ccccc1Cl` (some centres undefined), the TGI was greater than 100 µM in [1]; greater than 10 µM in experiment [2]; greater than 31.6 µM in [4]; greater than 100 µM in [5]; 92.2 µM in [6]; greater than 100 µM in experiment [7]. The TGI in [10], in experiment [8] and in experiment [9] was greater than 100 µM in each case.
On to `CCOC(=O)C1C(=O)c2ccccc2CN1Cc1ccccc1` (centres undefined), for which the TGI in [1], in experiment [2], in [4], in experiment [5], in [6] and in experiment [7] was greater than 100 µM each time. The TGI in [10], in experiment [8] and in [9] was greater than 100 µM each time.
With `O=C1c2ccccc2-c2c1c1ccccc1c(=O)n2CCNCCNCCn1c2c(c3ccccc3c1=O)C(=O)c1ccccc1-2`, the GI50 is 0.0217 µM in experiment [1]; 0.527 µM in [2]; 4.28 µM in experiment [3]; 1.02 µM in experiment [4]; 0.0327 µM in experiment [5]; 0.22 µM in experiment [6]. Further, the GI50 was 0.957 µM in experiment [7], 1.06 µM in experiment [8] and 0.0382 µM in experiment [9]. Further, the TGI is 17 µM in experiment [1]; 18.4 µM in experiment [2]; 38.5 µM in experiment [3]; greater than 21.2 µM in experiment [4]; 1.72 µM in [5]; 18.9 µM in experiment [6]. Also, the TGI in experiment [7] is 19.9 µM; in experiment [8] it was 4.11 µM; in experiment [9], 1.59 µM.
As for `C=C(CN1CCc2ccccc2C1)c1ccc(C(=O)Nc2ccc(N)cc2)cc1`, the GI50 in experiment [1] is 30 µM; in experiment [2], 19.6 µM; in experiment [3], 29.8 µM; in [5] it was 20.4 µM; in experiment [6] it was 58.5 µM; in experiment [7], 16.3 µM. Further, the GI50 in [8] is 26.3 µM; in experiment [9] it was 28.2 µM. Also, the TGI in experiment [1] was greater than 100 µM; in experiment [2], greater than 100 µM; in [3] it was greater than 100 µM; in experiment [5], 48.4 µM; in experiment [6] it was greater than 100 µM; in experiment [7] it was 30.9 µM. For the same compound, the TGI in experiment [8] and in experiment [9] was greater than 100 µM throughout.
For the compound `COc1cc2c(/C=C3/C(=O)Nc4ccccc43)c(Cl)n(Cc3ccccc3[N+](=O)[O-])c2cc1C`, the GI50 was 4.95 µM in [1]; 6.39 µM in [2]; 15 µM in [3]; 7.46 µM in experiment [4]; 4.9 µM in experiment [5]; 12.7 µM in experiment [6]. Besides, the GI50 in experiment [7] was 5.02 µM; in [8], 12.4 µM; in experiment [9], 11.2 µM. The TGI in experiment [1] is 19.6 µM; in [2] it was 23.3 µM; in [3] it was 94 µM; in experiment [4] it was greater than 100 µM; in experiment [5], 21.3 µM; in [6], 38.4 µM. Moreover, the TGI in experiment [7] worked out at 19.6 µM; in [8] it was 34.1 µM; in experiment [9], 25.1 µM.
`CC(=O)OC(C)(C)/C=C/C(=O)[C@](C)(O)[C@H]1[C@H](O)C[C@@]2(C)[C@@H]3CC=C4[C@@H](C[C@H](O)C(=O)C4(C)C)[C@]3(C)C(=O)C[C@]12C`: the TGI in [1] is less than 0.03 µM; in [2], less than 0.01 µM; in experiment [3], less than 0.01 µM; in [4], less than 0.0132 µM; in experiment [5], 13.6 µM; in experiment [7], 0.135 µM. The figures for the TGI in [10], in experiment [8] and in experiment [9] were 1.21 µM, less than 0.01 µM and less than 0.01 µM, respectively.
As for `CCOP(=O)(OCC)/C(C#N)=C/c1ccco1`, the TGI in experiment [1], in [2], in experiment [4], in experiment [5], in experiment [6] and in experiment [7] was greater than 100 µM in each case. Moreover, the TGI in [10], in experiment [8] and in experiment [9] was greater than 100 µM throughout.
Consider `N=C(N)CCCCCCCCC(=N)N`, for which the GI50 was greater than 100 µM in experiment [1]; 7.37 µM in experiment [2]; 29.2 µM in [3]; 52.9 µM in [4]; 21.1 µM in experiment [5]; 15.7 µM in experiment [6]. Also, the GI50 was 38.2 µM in experiment [7], 32.2 µM in [8] and 8.08 µM in [9]. The TGI in [1], in experiment [2], in experiment [3], in [4], in [5] and in experiment [6] was greater than 100 µM in each case. In addition, the TGI in experiment [7], in experiment [8] and in experiment [9] was greater than 100 µM each time.
For the compound `CC(=O)/C=C/c1ccc(C2CC(C)=Nc3c(ccc4c3C(=O)c3ccccc3C4=O)N2)cc1` (centres undefined), the TGI in [1] was greater than 100 µM; in experiment [2] it was greater than 83.5 µM; in [4] it was greater than 100 µM; in [5], greater than 23.6 µM; in experiment [6], greater than 100 µM; in experiment [7], greater than 100 µM. Further, the TGI in experiment [10], in [8] and in experiment [9] was greater than 100 µM in each case.
Regarding `Nc1ccccc1C#C/C=C\C#Cc1ccc(Cl)cc1Cl`, the GI50 was 20.9 µM in experiment [1]; 3.38 µM in [2]; 3.61 µM in experiment [3]; 14.8 µM in [4]; 2.72 µM in experiment [5]; 19.2 µM in [6]. Besides, the GI50 in experiment [7] is 6.63 µM; in experiment [8], 11.6 µM; in experiment [9], 15.3 µM. Further, the TGI in experiment [1] came out at 41.7 µM; in experiment [2], 13.5 µM; in [3], 8.49 µM; in experiment [4], 38.7 µM; in [5], 14.4 µM; in [6] it was 39.5 µM. For the same compound, the figures for the TGI in experiment [7], in [8] and in experiment [9] were 21.2 µM, 26.8 µM and 34 µM, respectively.
On to `COc1ccc2[nH]c(Cl)c(/C=C3/C(=O)N(C)c4ccccc43)c2c1`, for which the GI50 is greater than 100 µM in [1]; greater than 100 µM in [2]; greater than 100 µM in experiment [3]; greater than 100 µM in [4]; 16.9 µM in experiment [5]; 29.4 µM in experiment [6]. Moreover, the GI50 in [7] is 69.3 µM; in [8], greater than 100 µM; in experiment [9], greater than 100 µM. The TGI was greater than 100 µM in experiment [1]; greater than 100 µM in experiment [2]; greater than 100 µM in [3]; greater than 100 µM in experiment [4]; 34.7 µM in [5]; greater than 100 µM in [6]. The TGI in [7], in [8] and in experiment [9] was greater than 100 µM in each case.

These data come from PubChem BioAssay (NCI).
